US20250236608A1, “EGFR INHIBITORS” (Blueprint Medicines Corporation, priority 2022, published 2025)

Assays:
EGFR L858R = EGFR L858R (Homo sapiens (Human), UniProt P00533, L858R); assay: Biochemical EGFR inhibition assay, EGFR L858R; details: Caliper mobility shift; 1.0 mM ATP or ATP Km; read-out: Enz EGFR_L858R IC50
[1] = target: pEGFR (Tyr1068) in PC-9 cells (Ex19Del) (Homo sapiens (Human), UniProt P00533, DEL746-750); assay: PC-9 pEGFR AlphaLISA assay; format: cell-based; details: 4 hours incubation, p-EGFR (Tyr1068) AlphaLISA, read-out: Ext pEGFR_PC-9 Ex19Del IC50
Chain of pEGFR (Tyr1068) in PC-9 cells (Ex19Del) (P00533 other isoform, or with tags, fused parts or gaps del 746-750): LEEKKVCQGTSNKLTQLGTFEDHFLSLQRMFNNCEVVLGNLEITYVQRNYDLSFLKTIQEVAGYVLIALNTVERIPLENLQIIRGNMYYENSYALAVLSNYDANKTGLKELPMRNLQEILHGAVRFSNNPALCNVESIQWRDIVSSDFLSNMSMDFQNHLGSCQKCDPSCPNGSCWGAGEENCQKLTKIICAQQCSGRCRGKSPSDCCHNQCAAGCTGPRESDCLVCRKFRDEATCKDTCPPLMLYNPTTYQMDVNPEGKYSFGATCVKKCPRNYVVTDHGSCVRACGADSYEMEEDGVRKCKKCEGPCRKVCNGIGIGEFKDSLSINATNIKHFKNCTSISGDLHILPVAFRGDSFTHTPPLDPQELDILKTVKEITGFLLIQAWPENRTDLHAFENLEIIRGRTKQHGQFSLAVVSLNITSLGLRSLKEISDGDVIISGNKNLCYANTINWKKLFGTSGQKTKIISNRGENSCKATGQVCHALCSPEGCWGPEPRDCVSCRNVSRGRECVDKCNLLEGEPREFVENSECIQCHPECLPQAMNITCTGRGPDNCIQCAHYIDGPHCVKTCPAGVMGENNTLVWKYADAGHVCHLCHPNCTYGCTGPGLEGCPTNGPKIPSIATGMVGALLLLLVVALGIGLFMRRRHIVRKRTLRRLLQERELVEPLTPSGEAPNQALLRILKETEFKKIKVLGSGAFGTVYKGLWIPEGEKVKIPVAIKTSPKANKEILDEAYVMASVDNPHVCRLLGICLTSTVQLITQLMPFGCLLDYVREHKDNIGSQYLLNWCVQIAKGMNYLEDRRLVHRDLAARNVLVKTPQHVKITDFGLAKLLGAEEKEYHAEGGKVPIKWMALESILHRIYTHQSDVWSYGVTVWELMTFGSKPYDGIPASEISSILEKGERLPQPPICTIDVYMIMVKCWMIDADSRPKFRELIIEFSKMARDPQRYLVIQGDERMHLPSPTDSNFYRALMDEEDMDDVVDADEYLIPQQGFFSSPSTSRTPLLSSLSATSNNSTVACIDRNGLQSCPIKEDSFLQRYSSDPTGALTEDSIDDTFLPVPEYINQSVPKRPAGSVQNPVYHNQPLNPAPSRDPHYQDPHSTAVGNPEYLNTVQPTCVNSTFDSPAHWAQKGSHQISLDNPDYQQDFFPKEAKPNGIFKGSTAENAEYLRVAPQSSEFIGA
Method in brief: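 Cells seeded in phenol-free DMEM with 10% FBS adhered overnight at 37° C./5% CO2, then were exposed for 4 hours to a 4-fold, 10-point compound dilution series. After lysis, phospho-EGFR was read by AlphaLISA SureFire Ultra, and IC50 was fitted from percent inhibition versus log concentration.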

EGFR (d746-750) = EGFR (d746-750) (Homo sapiens (Human), UniProt P00533, DEL746-750); assay: Biochemical EGFR inhibition assay, EGFR (d746-750); details: Caliper mobility shift; 1.0 mM ATP or ATP Km; read-out: Enz EGFR_Exon19-del746-750 IC50
Chain of EGFR (d746-750) (P00533 other isoform, or with tags, fused parts or gaps del 1-694/del 746-750 limits assumed): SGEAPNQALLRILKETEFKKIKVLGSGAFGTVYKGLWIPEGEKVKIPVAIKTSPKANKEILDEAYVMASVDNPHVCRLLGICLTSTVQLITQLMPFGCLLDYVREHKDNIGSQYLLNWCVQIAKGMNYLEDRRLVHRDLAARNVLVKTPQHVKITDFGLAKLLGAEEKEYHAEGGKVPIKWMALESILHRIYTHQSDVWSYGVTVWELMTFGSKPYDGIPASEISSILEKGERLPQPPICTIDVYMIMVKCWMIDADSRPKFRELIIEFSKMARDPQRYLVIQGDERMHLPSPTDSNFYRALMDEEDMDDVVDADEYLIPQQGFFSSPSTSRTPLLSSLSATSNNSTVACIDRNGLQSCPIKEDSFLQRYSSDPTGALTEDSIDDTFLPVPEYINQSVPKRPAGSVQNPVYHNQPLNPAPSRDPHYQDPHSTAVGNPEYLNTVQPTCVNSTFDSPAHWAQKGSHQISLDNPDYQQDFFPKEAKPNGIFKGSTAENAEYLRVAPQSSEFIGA

Chain of EGFR L858R (P00533 25-1210 L858R): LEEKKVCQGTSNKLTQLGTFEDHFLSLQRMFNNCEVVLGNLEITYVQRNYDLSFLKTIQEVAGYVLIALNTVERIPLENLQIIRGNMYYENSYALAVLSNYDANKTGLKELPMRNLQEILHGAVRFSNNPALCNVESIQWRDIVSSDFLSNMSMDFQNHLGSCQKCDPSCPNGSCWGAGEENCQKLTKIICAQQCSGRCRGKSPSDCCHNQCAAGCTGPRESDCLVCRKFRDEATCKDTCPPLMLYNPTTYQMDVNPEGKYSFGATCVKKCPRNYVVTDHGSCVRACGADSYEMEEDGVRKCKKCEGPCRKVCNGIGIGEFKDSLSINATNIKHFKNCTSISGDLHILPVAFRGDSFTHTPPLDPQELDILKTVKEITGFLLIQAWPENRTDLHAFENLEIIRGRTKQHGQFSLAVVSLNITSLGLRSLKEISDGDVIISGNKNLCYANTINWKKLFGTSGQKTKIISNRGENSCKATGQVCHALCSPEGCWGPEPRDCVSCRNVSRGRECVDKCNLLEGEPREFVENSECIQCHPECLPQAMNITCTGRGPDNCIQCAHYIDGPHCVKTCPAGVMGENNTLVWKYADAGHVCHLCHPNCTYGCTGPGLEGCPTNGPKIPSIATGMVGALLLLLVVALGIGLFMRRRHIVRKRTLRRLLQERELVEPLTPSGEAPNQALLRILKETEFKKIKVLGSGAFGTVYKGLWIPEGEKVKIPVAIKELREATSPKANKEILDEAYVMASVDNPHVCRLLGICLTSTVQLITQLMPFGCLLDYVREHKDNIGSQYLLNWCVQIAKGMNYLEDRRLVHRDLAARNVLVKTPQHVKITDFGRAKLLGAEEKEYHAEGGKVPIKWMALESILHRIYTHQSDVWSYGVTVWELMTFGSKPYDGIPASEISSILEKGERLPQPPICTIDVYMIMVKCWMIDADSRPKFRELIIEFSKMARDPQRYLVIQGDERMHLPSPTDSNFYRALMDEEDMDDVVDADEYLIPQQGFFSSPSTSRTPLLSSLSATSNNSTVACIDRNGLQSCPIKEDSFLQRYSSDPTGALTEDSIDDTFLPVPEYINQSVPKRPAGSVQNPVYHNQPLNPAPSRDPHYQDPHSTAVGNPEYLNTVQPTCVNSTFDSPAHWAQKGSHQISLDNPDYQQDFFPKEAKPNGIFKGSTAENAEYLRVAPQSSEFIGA

| Structure (SMILES) | IC50 (EGFR L858R) [nM] | IC50 [1] [nM] | IC50 (EGFR (d746-750)) [nM] |
| --- | --- | --- | --- |
| CCn1cc(-c2ncnc3cc(OC)c(NC(=O)[C@@]45COC[C@@H]4C5)cc23)c(-c2ccccc2)n1 [Example 288, (1R,5R)—N-(4-(1-ethyl-3-phenyl-1H-pyrazol-4-yl)-7-methoxyquinazolin-6-yl)-3-oxabicyclo[3.1.0]hexane-1-carboxamide] | 1.9 | 2 | 1.2 |
| COc1cc2ncnc(-c3cn(C)nc3-c3ccccc3)c2cc1NC(=O)C1C2COCC21 (stereo not drawn) [Example 223, N-(7-methoxy-4-(1-methyl-3-phenyl-1H-pyrazol-4-yl)quinazolin-6-yl)-3-oxabicyclo[3.1.0]hexane-6-carboxamide] | 2.9 | 3.2 | 2.1 |
| CCn1cc(-c2ncnc3cc(OC)c([C@H](C)O)cc23)c(-c2ccccc2)n1 (single isomer, unassigned) [Example 105, (S)-1-(4-(1-ethyl-3-phenyl-1H-pyrazol-4-yl)-7-methoxyquinazolin-6-yl)ethan-1-ol or (R)-1-(4-(1-ethyl-3-phenyl-1H-pyrazol-4-yl)-7-methoxyquinazolin-6-yl)ethan-1-ol] | 3.3 | 6.5 | 1.3 |
| COc1cc2ncnc(-c3cn(C)nc3-c3ccc(F)cc3)c2cc1NC(=O)c1scnc1C [Example 304, N-(4-(3-(4-fluorophenyl)-1-methyl-1H-pyrazol-4-yl)-7-methoxyquinazolin-6-yl)-4-methylthiazole-5-carboxamide] | 1.8 | 1.2 | 1 |
| COc1cc2ncnc(-c3cn(C)nc3-c3ccccc3)c2cc1NC(=O)C12CC(C1)C2 [Example 340, N-(7-methoxy-4-(1-methyl-3-phenyl-1H-pyrazol-4-yl)quinazolin-6-yl)bicyclo[1.1.1]pentane-1-carboxamide] | 3.3 | 2.5 | 1.6 |
| Cn1cc(-c2ccc3c(-c4c[nH]nc4-c4ccccc4)ncnc3c2)cn1 [Example 441, 7-(1-methyl-1H-pyrazol-4-yl)-4-(3-phenyl-1H-pyrazol-4-yl)quinazoline] | 1.1 | 0.4 | 0.7 |
| CCn1cc(C(=O)Nc2cc3c(-c4cn(CC(F)F)nc4-c4ccccc4)ncnc3cc2OC)cn1 [Example 268, N-(4-(1-(2,2-difluoroethyl)-3-phenyl-1H-pyrazol-4-yl)-7-methoxyquinazolin-6-yl)-1-ethyl-1H-pyrazole-4-carboxamide] | 1.8 | 0.8 | 1.1 |
| COc1cc2ncnc(-c3cn(C)nc3-c3ccccc3)c2cc1NC(=O)N1CCO[C@@H]2C[C@@H]21 (stereo in doubt) [Example 185, N-[7-methoxy-4-(1-methyl-3-phenyl-1H-pyrazol-4-yl)quinazolin-6-yl]-2-oxa-5-azabicyclo[4.1.0]heptane-5-carboxamide] | 2.1 | 3.1 | 1.3 |
| COc1cc2ncnc(-c3cn(C)nc3-c3ccccc3)c2cc1NC(=O)N1CCOC(C)(C)C1 [Example 184, N-[7-methoxy-4-(1-methyl-3-phenyl-1H-pyrazol-4-yl)quinazolin-6-yl]-2,2-dimethylmorpholine-4-carboxamide] | 3.5 | 7.9 | 1.8 |
| COc1cc2ncnc(-c3cn(C)nc3-c3ccccc3)c2cc1-c1cccc2c1nc(CO)n2C [Example 148, (4-(7-methoxy-4-(1-methyl-3-phenyl-1H-pyrazol-4-yl)quinazolin-6-yl)-1-methyl-1H-benzo[d]imidazol-2-yl)methanol] | 7 | 8.3 | 3 |
| COc1cc2ncnc(-c3cn(C)nc3-c3ccccc3)c2cc1NC(=O)[C@@H](C)CN(C)C (single isomer, unassigned) [Example 238, (S)-3-(dimethylamino)-N-(7-methoxy-4-(1-methyl-3-phenyl-1H-pyrazol-4-yl)quinazolin-6-yl)-2-methylpropanamide or (R)-3-(dimethylamino)-N-(7-methoxy-4-(1-methyl-3-phenyl-1H-pyrazol-4-yl)quinazolin-6-yl)-2-methylpropanamide] | 12 | 26 | 8.2 |
| COc1cc2ncnc(-c3cn(C)nc3-c3ccccc3)c2cc1OC(=O)N1CCN(C)C[C@H]1C (single isomer, unassigned) [Example 58, 7-methoxy-4-(1-methyl-3-phenyl-1H-pyrazol-4-yl)quinazolin-6-yl (R)-2,4-dimethylpiperazine-1-carboxylate or 7-methoxy-4-(1-methyl-3-phenyl-1H-pyrazol-4-yl)quinazolin-6-yl(S)-2,4-dimethylpiperazine-1-carboxylate] | 4.5 | 5.1 | 2.5 |
| COc1cc2ncnc(-c3cn(C)nc3-c3ccccc3)c2cc1O[C@@H]1CN(C)C[C@H]1F [Example 7, 6-(((3R,4R)-4-fluoro-1-methylpyrrolidin-3-yl)oxy)-7-methoxy-4-(1-methyl-3-phenyl-1H-pyrazol-4-yl)quinazoline] | 3.2 | 5.5 | 1.6 |
| COc1cc2ncnc(-c3cn(CC(F)F)nc3-c3ccccc3)c2cc1C1(O)CCOCC1 [Example 127, 4-(4-(1-(2,2-difluoroethyl)-3-phenyl-1H-pyrazol-4-yl)-7-methoxyquinazolin-6-yl)tetrahydro-2H-pyran-4-ol] | 2.6 | 2.6 | 1.4 |
| COc1cc2ncnc(-c3cn(C)nc3-c3ccccc3)c2cc1OC(=O)N1[C@H](C)CNC[C@@H]1C [Example 87, 7-methoxy-4-(1-methyl-3-phenyl-1H-pyrazol-4-yl)quinazolin-6-yl (2R,6S)-2,6-dimethylpiperazine-1-carboxylate] | 4.9 | 5.7 | 2.1 |
| CCOc1cc2ncnc(-c3cn(C)nc3-c3ccccc3)c2cc1[C@@H](C)O (single isomer, unassigned) [Example 104, (R)-1-(7-ethoxy-4-(1-methyl-3-phenyl-1H-pyrazol-4-yl)quinazolin-6-yl)ethan-1-ol or (S)-1-(7-ethoxy-4-(1-methyl-3-phenyl-1H-pyrazol-4-yl)quinazolin-6-yl)ethan-1-ol] | 2.1 | 5.2 | 1.3 |
| Cn1cc(-c2ccc3c(-c4cnn(C)c4-c4ccccc4)ncnc3c2)cn1 [Example 497] | 1.4 | 38.6 | 1.8 |
| CCOc1cc2ncnc(-c3cn(C)nc3-c3ccccc3)c2cc1N1CC2CC(C1)O2 [Example 167, 3-(7-ethoxy-4-(1-methyl-3-phenyl-1H-pyrazol-4-yl)quinazolin-6-yl)-6-oxa-3-azabicyclo[3.1.1]heptane] | 1.9 | 1.7 | 1.1 |
| COc1cc2ncnc(-c3cn(C)nc3-c3ccccc3F)c2nc1NC(=O)C1CC1 [Example 356, N-(4-(3-(2-fluorophenyl)-1-methyl-1H-pyrazol-4-yl)-7-methoxypyrido[3,2-d]pyrimidin-6-yl)cyclopropanecarboxamide] | 1.9 | 1.2 | 1.1 |
| COc1cc2ncnc(-c3cn(C)nc3-c3ccccc3)c2cc1NC(=O)C(C)(C)F [Example 350, 2-fluoro-N-(7-methoxy-4-(1-methyl-3-phenyl-1H-pyrazol-4-yl)quinazolin-6-yl)-2-methylpropanamide] | 3.1 | 4.4 | 1.5 |
| CCOc1cc2ncnc(-c3cn(C)nc3-c3ccccc3)c2cc1NC(=O)[C@]12C[C@H]1CN(C)C2 (single isomer, unassigned) [Example 257, (1R,5R)—N-(7-ethoxy-4-(1-methyl-3-phenyl-1H-pyrazol-4-yl)quinazolin-6-yl)-3-methyl-3-azabicyclo[3.1.0]hexane-1-carboxamide or (1S,5S)—N-(7-ethoxy-4-(1-methyl-3-phenyl-1H-pyrazol-4-yl)quinazolin-6-yl)-3-methyl-3-azabicyclo[3.1.0]hexane-1-carboxamide] | 1.5 | 4.8 | 0.9 |
| CCn1cc(-c2ncnc3cc(OC)c(NC(=O)[C@@]45COC[C@@H]4C5)cc23)c(-c2ccccc2F)n1 (mixture of isomers) [Example 262, (1R,5R)—N-(4-(1-ethyl-3-(2-fluorophenyl)-1H-pyrazol-4-yl)-7-methoxyquinazolin-6-yl)-3-oxabicyclo[3.1.0]hexane-1-carboxamide and (1S,5S)—N-(4-(1-ethyl-3-(2-fluorophenyl)-1H-pyrazol-4-yl)-7-methoxyquinazolin-6-yl)-3-oxabicyclo[3.1.0]hexane-1-carboxamide] | 1.1 | 1.1 | 0.6 |
| COc1cc2ncnc(-c3cn(C)nc3-c3ccccc3)c2nc1O[C@H](C)c1cnnn1C [Example 41, (R)-7-methoxy-6-(1-(1-methyl-1H-1,2,3-triazol-5-yl)ethoxy)-4-(1-methyl-3-phenyl-1H-pyrazol-4-yl)pyrido[3,2-d]pyrimidine] | 8.3 | 9.2 | 4.1 |
| COc1cc2ncnc(-c3cn(C)nc3-c3ccccc3)c2nc1-c1ccc2c(c1)CNC2=O [Example 152, 5-(7-methoxy-4-(1-methyl-3-phenyl-1H-pyrazol-4-yl)pyrido[3,2-d]pyrimidin-6-yl) isoindolin-1-one] | 2 | 1.9 | 1 |
| COc1cc2ncnc(-c3cn(C)nc3-c3ccccc3)c2cc1OC(=O)N1CCOC[C@H]1C [Example 61, 7-methoxy-4-(1-methyl-3-phenyl-1H-pyrazol-4-yl)quinazolin-6-yl (R)-3-methylmorpholine-4-carboxylate] | 4.5 | 7.9 | 2.3 |
